These results are taken from BindingDB's records for patent US20240083921 (Reistone Biopharma Company, 2024).

For the assay, the target named is cAMP-specific 3',5'-cyclic phosphodiesterase 4B (Homo sapiens, UniProt Q07343). The experiment in a line: In vitro PDE4B Enzyme Activity Detection Assay. The method, then:
1. Experimental MaterialsName Brand Cat No.PDE4B1 enzyme BPS 60041Trequinsin TOCRIS 2337/10IMAP FP IPP Explorer Kit Molecular Device R8124FAM-cAMP Molecular Device R7506OptiPlate -384 F PerkinElmer 6007279black assay plate 384 well Echo plate Labcyte PP-02002. Experimental StepsFirst, a stock solution of the compound at a concentration of 10 mM was prepared in a test tube with 90% DMSO (10% water), and it was used to prepare a series of dilutions with a dilution factor of 1:5 and final concentrations starting from 100 μM to as low as 0.05 nM. 0.2 μl of the compound solution was transferred into a 384-well reaction plate, and 0.2 μl of 100% DMSO was transferred into both the negative and positive controls. Then, 10 μl of 2 PDE4B1 enzyme solution (making a final concentration of 0.04 nM) was added to each well, and 10 μl of 1 reaction buffer instead of the enzyme solution was added to the zero enzyme activity control wells. The plate was centrifuged at 1,000 rpm for 1 min and incubated at room temperature for 15 min. […] After the incubation, the RLU data were read and the inhibition rate was calculated. The IC50 value was calculated from the concentration-inhibition fitted curve, wherein the maximum value refers to the reading of the DMSO control and the minimum value refers to the reading of the zero enzyme activity control.

Sequence of cAMP-specific 3',5'-cyclic phosphodiesterase 4B (Q07343 whole entry): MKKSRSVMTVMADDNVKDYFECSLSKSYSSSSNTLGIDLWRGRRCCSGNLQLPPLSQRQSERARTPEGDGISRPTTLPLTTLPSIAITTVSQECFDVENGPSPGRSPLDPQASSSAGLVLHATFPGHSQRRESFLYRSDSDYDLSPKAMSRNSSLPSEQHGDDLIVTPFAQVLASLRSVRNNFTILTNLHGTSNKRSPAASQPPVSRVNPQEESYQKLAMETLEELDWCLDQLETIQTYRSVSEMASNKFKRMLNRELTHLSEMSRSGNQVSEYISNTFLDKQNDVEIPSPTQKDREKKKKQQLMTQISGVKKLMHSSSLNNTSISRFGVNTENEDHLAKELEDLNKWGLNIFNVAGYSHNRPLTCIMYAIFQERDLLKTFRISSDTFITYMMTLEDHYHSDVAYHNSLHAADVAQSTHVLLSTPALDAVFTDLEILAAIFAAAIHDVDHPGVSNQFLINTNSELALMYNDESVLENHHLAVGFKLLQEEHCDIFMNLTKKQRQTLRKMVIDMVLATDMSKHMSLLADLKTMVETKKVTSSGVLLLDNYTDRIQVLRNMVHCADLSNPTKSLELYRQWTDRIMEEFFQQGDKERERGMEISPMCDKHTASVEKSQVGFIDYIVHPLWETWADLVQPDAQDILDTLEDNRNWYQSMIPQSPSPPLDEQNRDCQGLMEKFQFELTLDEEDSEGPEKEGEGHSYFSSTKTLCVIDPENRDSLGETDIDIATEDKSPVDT

`COc1ccc(-c2cncc(C3COB(O)C3)c2)c2c1OC(C)(C)CO2` (configuration not stated) [US20240083921, Compound 8] registered a concentration for half-maximal inhibition (IC50) of 0.22 nM.

On to `COc1ccc(-c2cncc([C@H]3COB(O)C3)n2)c2c1OC(C)(C)CC2` [US20240083921, Compound 11-2], for which the IC50 is 3.62 nM.
